Our source for the IC50 values is patent US9221822B2, “Thiazolopyrimidine modulators as immunosuppressive agents” (Katholieke Universiteit Leuven, K.U.Leuven R&D, priority 2009, dated 2015).

Molecules are shown by their SMILES. Bounds are passed on as bounds.

As usually defined, the IC50 is the concentration that inhibits the measured activity by half. Read a low IC50 as greater potency.

This test has as its system Human peripheral blood mononuclear cells (PBMCs) as Responder cells, RPMI 1788 Stimulator cells. The experiment in a line: Mixed Lymphocyte Reaction (MLR) test. Format: cell-based. Conditions: Homo sapiens, RPMI-1788, lowest concentration giving 50% inhibition of the MLR; 6 days coculture, 3H-thymidine incorporation. The protocol:
Human peripheral blood mononuclear cells (PBMCs) were isolated from buffy coats, obtained from healthy blood donors by Ficoll (Lymphoprep, Axis-Shield PoC AS, Oslo, Norway) density-gradient centrifugation. The cells at the Ficoll-plasma interface were washed three times and used as “Responder” cells. RPMI 1788 (ATCC, N^o CCL-156) cells were treated with mitomycin C (Kyowa, Nycomed, Brussel, Belgium) and used as “Stimulator” cells. Responder cells (0.12×10^6), Stimulator cells (0.045×10^6) and compounds (in different concentrations) were cocultured for 6 days in RPMI 1640 medium (BioWhittaker, Lonza, Belgium) supplemented with 10% fetal calf serum, 100 U/ml Geneticin (Gibco, LifeTechnologies, UK). Cells were cultured in triplicate in flat-bottomed 96-well microtiter tissue culture plates (TTP, Switzerland). After 5 days, cells were pulsed with 1 μCi of methyl-^3H thymidine (MP Biomedicals, USA), harvested 18 h later on glass filter paper and counted. Proliferation values were expressed as counts per minute (cpm), and converted to % inhibition with respect to a blank MLR test (identical but without added compound). […]
On the technique in general: Dividing cells build labelled thymidine or BrdU into new DNA.
`Nc1nc(NC2CCCN(C(=O)OCc3ccccc3)C2)c2nc(CCc3ccc(F)cc3)sc2n1` (stereo not shown) [Example 145, 5-amino-2-[2-(4-fluorophenyl)ethyl]-7-(1-benzyloxycarbonylpiperidin-3-ylamino)-thiazolo[5,4-d]pyrimidine] showed an IC50 of 4350 nM.

For `Nc1nc(N[C@H]2CCN(C(=O)COc3ccc(Cl)cc3)C2)c2nc(CCc3ccc(F)cc3)sc2n1` [Example 147, 5-amino-2-[2-(4-fluorophenyl)ethyl]-7-(1-(4-chlorophenoxyacetyl)pyrrolidin-3-(S)-ylamino)-thiazolo[5,4-d]pyrimidine], the half-inhibitory concentration (IC50) came to 4520 nM.

For `Nc1nc(N2CCC(C(=O)c3ccccc3)CC2)c2nc(CCc3ccc(F)cc3)sc2n1` [Example 148, 5-amino-2-[2-(4-fluorophenyl)ethyl]-7-(4-benzoylpiperidine-1-yl)-thiazolo[5,4-d]pyrimidine], the IC50 was determined as 2610 nM.

`Nc1nc(N2CCN(CCOc3ccccc3)CC2)c2nc(CCc3ccc(F)cc3)sc2n1` [Example 149, 5-amino-2-[2-(4-fluorophenyl)ethyl]-7-(4-(2-phenoxyethyl)piperazin-1-yl)-thiazolo[5,4-d]pyrimidine] showed an IC50 of 5760 nM.

Compound `CCC(c1ccc(F)cc1)c1nc2c(N3CCN(C(=O)COc4ccc(Cl)cc4)CC3)nc(N)nc2s1` (stereo not shown) [Example 150, 5-amino-2-[1-(4-fluorophenyl)propyl]-7-(4-[2-(4-chlorophenoxy)acetyl]piperazin-1-yl)thiazolo[5,4-d]pyrimidine] registered an IC50 of 5390 nM.

On to `Nc1nc(N2CCN(C(=O)COc3ccc(Cl)cc3)CC2)c2nc(C(c3ccc(F)cc3)C3CCCC3)sc2n1` (stereo not shown) [Example 151, 5-amino-2-[cyclopentyl-(4-fluorophenyl)methyl]-7-(4-[2-(4-chlorophenoxy)acetyl]piperazin-1-yl)thiazolo[5,4-d]pyrimidine], for which the IC50 was > 10000 nM.

Compound `Nc1nc(N2CCN(C(=O)COc3ccc(Cl)cc3)CC2)c2nc(CCc3cccs3)sc2n1` [Example 154, 5-amino-2-(2-thiophen-2-ylethyl)-7-(4-[2-(4-chloro-phenoxy)acetyl]piperazin-1-yl)thiazolo[5,4-d]pyrimidine] returned an IC50 of 790 nM.

`Nc1nc(N2CCN(C(=O)Cc3ccc(Cl)cc3)CC2)c2nc(CCc3cccs3)sc2n1` [Example 155, 5-amino-2-(2-thiophen-2-ylethyl)-7-(4-[2-(4-chloro-phenyl)acetyl]piperazin-1-yl)thiazolo[5,4-d]pyrimidine]: the half-inhibitory concentration (IC50) is > 10000 nM.

Take `Nc1nc(N2CCN(C(=O)c3ccc(Cl)cc3)CC2)c2nc(CCc3cccs3)sc2n1` [Example 156, 5-amino-2-(2-thiophen-2-ylethyl)-7-(4-(4-chloro-benzoyl)piperazin-1-yl)thiazolo[5,4-d]pyrimidine]: the IC50 was > 10000 nM.

In turn, `Cc1cccc(NC(=O)N2CCN(c3nc(N)nc4sc(CCc5cccs5)nc34)CC2)c1` [Example 157, 5-amino-2-(2-thiophen-2-ylethyl)-7-(4-m-tolylcarbamoylpiperazin-1-yl)thiazolo[5,4-d]pyrimidine] had an IC50 of 630 nM.

The compound `Nc1nc(N2CCN(C(=O)COc3ccc(Cl)cc3)CC2)c2nc(-c3ccc(F)cc3)oc2n1` [Example 169, 1-(4-(5-amino-2-(4-fluorophenyl)oxazolo[5,4-d]pyrimidin-7-yl)piperazin-1-yl)-2-(4-chlorophenoxy)ethanone] had an IC50 of 3000 nM.

`Nc1nc(N2CCN(C(=O)COc3ccc(Cl)cc3)CC2)c2nc(CCc3ccc(F)cc3)oc2n1` [Example 172, 1-(4-(5-amino-2-(4-fluorophenethyl)oxazolo[5,4-d]pyrimidin-7-yl)piperazin-1-yl)-2-(4-chlorophenoxy)ethanone] yielded an IC50 of 800 nM.

Compound `Nc1nc(N2CCN(C(=O)COc3ccc(Cl)cc3)CC2)c2nc(C3CC3)oc2n1` [Example 185, 5-amino-2-cyclopropyl-7-[4-(4-chlorophenoxyacetyl)piperazin-1-yl]-oxazolo[5,4-d]pyrimidine] had an IC50 of 1760 nM.

The compound `COCc1nc2c(N3CCN(C(=O)COc4ccc(Cl)cc4)CC3)nc(N)nc2o1` [Example 186, 5-amino-7-[4-(4-chlorophenoxyacetyl)piperazin-1-yl]-2-methoxylmethyloxazolo[5,4-d]pyrimidine] yielded an IC50 of 1830 nM.

On to `Nc1nc(N2CCN(C(=O)COc3ccc(Cl)cc3)CC2)c2nc(C3CCCCC3)oc2n1` [Example 187, 5-amino-2-cyclohexyl-7-[4-(4-chlorophenoxyacetyl)piperazin-1-yl]oxazolo[5,4-d]pyrimidine], for which the IC50 is > 10000 nM.

The compound `CCCCCc1nc2c(N3CCN(C(=O)COc4ccc(Cl)cc4)CC3)nc(N)nc2o1` [Example 188, 5-amino-7-[4-(4-chlorophenoxyacetyl)piperazin-1-yl]-2-pentyloxazolo[5,4-d]pyrimidine] had an IC50 of 4430 nM.

The compound `Nc1nc(N2CCN(C(=O)COc3ccc(Cl)cc3)CC2)c2nc(CCc3ccccc3)oc2n1` [Example 189, 5-amino-2-(2-phenylethyl)-7-[4-(4-chlorophenoxyacetyl)piperazin-1-yl]oxazolo[5,4-d]pyrimidine] yielded an IC50 of 5530 nM.

With `CC(=O)N1CCN(c2nc(N)nc3oc(-c4ccc(F)cc4)nc23)CC1` [Example 191, 5-amino-2-(4-fluorophenyl)-7-(4-acetylpiperazin-1-yl)-oxazolo[5,4-d]pyrimidine], the IC50 is > 10000 nM.

For `COCCN1CCN(c2nc(N)nc3oc(-c4ccc(F)cc4)nc23)CC1` [Example 192, 5-amino-2-(4-fluorophenyl)-7-[4-(2-methoxyethyl)-piperazin-1-yl]-oxazolo[5,4-d]pyrimidine], the IC50 is > 10000 nM.

Take `Nc1nc(N2CCN(C(=O)COc3cccc([N+](=O)[O-])c3)CC2)c2nc(-c3ccc(F)cc3)oc2n1` [Example 193, 5-amino-2-(4-fluorophenyl)-7-(4-[2-(3-nitrophenoxy)acetyl]-piperazin-1-yl)-oxazolo[5,4-d]pyrimidine]: the IC50 was 700 nM.

In the case of `Nc1nc(N2CCN(C(=O)Cc3ccc(Cl)cc3)CC2)c2nc(CCc3ccc(F)cc3)oc2n1` [Example 194, 5-amino-2-[2-(4-fluorophenyl)ethyl]-7-(4-[2-(4-chlorophenyl)acetyl]-piperazin-1-yl)-oxazolo[5,4-d]pyrimidine], the midpoint of inhibition, the IC50, lay at 9040 nM.

Consider `Nc1nc(N2CCN(C(=O)c3ccc(Cl)cc3)CC2)c2nc(CCc3ccc(F)cc3)oc2n1` [Example 195, 5-amino-2-[2-(4-fluorophenyl)ethyl]-7-(4-[4-chlorobenzoyl]piperazin-1-yl)-oxazolo[5,4-d]pyrimidine], for which the IC50 was > 10000 nM.

Turning to `Cc1cccc(NC(=O)N2CCN(c3nc(N)nc4oc(CCc5ccc(F)cc5)nc34)CC2)c1` [Example 196, 5-amino-2-[2-(4-fluorophenyl)ethyl]-7-(4-m-tolylcarbamoylpiperazin-1-yl)-oxazolo[5,4-d]pyrimidine], the IC50 stood at 3970 nM.

Compound `Nc1nc(N2CCN(CCOc3ccccc3)CC2)c2nc(CCc3ccc(F)cc3)oc2n1` [Example 197, 5-amino-2-[2-(4-fluorophenyl)ethyl]-7-(4-(2-phenoxyethyl)piperazin-1-yl)-oxazolo[5,4-d]pyrimidine] showed an IC50 of 1950 nM.

Take `CN(C(=O)CN1CCN(c2nc(N)nc3oc(CCc4ccc(F)cc4)nc23)CC1)c1ccccc1` [Example 198, 5-amino-2-[2-(4-fluorophenyl)ethyl]-7-(4-[(methylphenyl-carbamoyl)methyl]piperazin-1-yl)-oxazolo[5,4-d]pyrimidine]: the concentration for half-maximal inhibition (IC50) was > 10000 nM.

`COc1ccc(OCC(=O)N2CCN(c3nc(N)nc4sc(-c5ccccc5)nc34)CC2)cc1` [Example 208, 1-(4-(5-amino-2-phenylthiazolo[5,4-d]pyrimidin-7-yl)piperazin-1-yl)-2-(4-methoxyphenoxy)ethanone] displayed an IC50 of 42 nM.

In the case of `Nc1nc(N2CCN(C(=O)COc3ccc(F)cc3)CC2)c2nc(-c3ccco3)sc2n1` [Example 209, 1-(4-(5-amino-2-(furan-2-yl)thiazolo[5,4-d]pyrimidin-7-yl)piperazin-1-yl)-2-(4-fluorophenoxy)ethanone], the IC50 is 55 nM.

For `Cc1cccc(OCC(=O)N2CCN(c3nc(N)nc4sc(-c5ccco5)nc34)CC2)c1` [Example 210, 1-(4-(5-amino-2-(furan-2-yl)thiazolo[5,4-d]pyrimidin-7-yl)piperazin-1-yl)-2-(m-tolyloxy)ethanone], half-maximal inhibition (IC50) was put at 72 nM.

As to `Cc1cccc(OCC(=O)N2CCN(c3nc(N)nc4sc(-c5ccc(F)cc5)nc34)CC2)c1` [Example 211, 1-(4-(5-amino-2-(4-fluorophenyl)thiazolo[5,4-d]pyrimidin-7-yl)piperazin-1-yl)-2-(m-tolyloxy)ethanone], the IC50 amounted to 52 nM.

`Nc1nc(N2CCN(C(=O)COc3ccc(Cl)cc3Cl)CC2)c2nc(-c3ccc(F)cc3)sc2n1` [Example 212, 1-(4-(5-amino-2-(4-fluorophenyl)thiazolo[5,4-d]pyrimidin-7-yl)piperazin-1-yl)-2-(2,4-dichlorophenoxy)ethanone]: half-maximal inhibition (IC50) required 375 nM.

`Cc1cc(Cl)ccc1OCC(=O)N1CCN(c2nc(N)nc3sc(-c4ccc(F)cc4)nc23)CC1` [Example 213, 1-(4-(5-amino-2-(4-fluorophenyl)thiazolo[5,4-d]pyrimidin-7-yl)piperazin-1-yl)-2-(4-chloro-2-methylphenoxy)ethanone] displayed an IC50 of 219 nM.
